The nature of data set [1]: Aqueous solubility. In kind it is physicochemical. The note with it: water; for solubility: read-out: S.
Data set [2] concerns the target Acetylcholinesterase (Homo sapiens, UniProt P22303). Nature of the data set: Concentration required for the inhibition of acetylcholinesterase.
Data set [3] is described as follows: Aqueous solubility.

Some results are limits rather than exact numbers.

This note sets out measurements from ChEMBL document CHEMBL1135325, “Novel piperidinium and pyridinium agents as water-soluble acetylcholinesterase inhibitors for the reversal of neuromuscular blockade” (Bioorg Med Chem Lett, 2002).

Chain of Acetylcholinesterase (P22303 whole entry): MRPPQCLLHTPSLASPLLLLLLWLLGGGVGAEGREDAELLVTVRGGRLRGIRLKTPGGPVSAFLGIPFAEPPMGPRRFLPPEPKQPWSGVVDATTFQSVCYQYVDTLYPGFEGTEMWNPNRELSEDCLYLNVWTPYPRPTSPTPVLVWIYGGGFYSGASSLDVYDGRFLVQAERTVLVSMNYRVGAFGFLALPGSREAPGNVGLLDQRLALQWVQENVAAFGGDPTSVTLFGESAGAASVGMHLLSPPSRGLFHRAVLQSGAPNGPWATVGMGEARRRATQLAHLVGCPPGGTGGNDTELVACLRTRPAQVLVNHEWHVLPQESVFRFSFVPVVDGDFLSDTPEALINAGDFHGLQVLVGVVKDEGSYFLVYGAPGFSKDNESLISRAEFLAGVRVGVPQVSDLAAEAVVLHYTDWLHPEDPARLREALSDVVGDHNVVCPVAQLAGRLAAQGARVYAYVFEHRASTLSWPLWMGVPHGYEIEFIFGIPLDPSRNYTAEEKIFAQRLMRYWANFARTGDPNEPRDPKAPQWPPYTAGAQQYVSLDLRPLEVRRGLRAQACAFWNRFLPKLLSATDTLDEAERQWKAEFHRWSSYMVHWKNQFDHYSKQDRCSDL

Broadly, the IC50 is the point on the concentration scale where inhibition reaches its midpoint. A lower IC50 goes with higher potency. With `COc1cc2cc(C(=O)CCc3cc[n+](Cc4ccc(F)cc4)cc3)sc2cc1OC`, the solubility in data set [1] was determined as 1000 µg/mL. This compound gave an IC50 in data set [2] of 2.6 nM.
Taken in the same sequence, the figures for `COC(=O)C[N+]1(C)CCC(CCC(=O)c2cc3cc(OC)c(OC)cc3s2)CC1.[Br-]` (stereo not drawn) were 60000 µg/mL and 54 nM.
Taken in the same sequence, the figures for `COCC[N+]1(C)CCC(CCC(=O)c2cc3cc(OC)c(OC)cc3s2)CC1.[Br-]` (stereo not drawn) were 60000 µg/mL and 53 nM.
Taken in the same sequence, the figures for `CCOCC[n+]1ccc(CCC(=O)c2cc3cc(OC)c(OC)cc3s2)cc1` were 50000 µg/mL and 7 nM.
Regarding `COc1cc2cc(CC3CC[N+](C)(Cc4ccccc4)CC3)sc2cc1OC.[Br-]` (stereo not drawn), the solubility in data set [1] turned out to be 3000 µg/mL. For the same compound, the IC50 in data set [2] is 10000 nM.
Consider `COc1cc2cc(C(=O)CC(O)C3CC[N+](C)(Cc4ccccc4)CC3)sc2cc1OC` (stereo in doubt; 9) [listing 1 of 2 here], for which the IC50 in data set [2] was 190 nM.
On to `COc1cc2cc(C(=O)CCc3cc[n+](Cc4ccsc4)cc3)sc2cc1OC`, for which, in data set [1], the solubility is 2000 µg/mL. Besides, the half-maximal inhibitory concentration (IC50) in data set [2] came out at 6 nM.
Taken in the same sequence, the figures for `COc1cc2cc(C(=O)CC(O)C3CC[N+](C)(Cc4ccccc4)CC3)sc2cc1OC.[Br-]` (single isomer, unassigned; (+)) were 10000 µg/mL and 219 nM.
As a reminder, the Solubility is the concentration that dissolves in the medium under given conditions. Read a low Solubility as a poorly soluble substance. For `COc1cc2cc(C(=O)CC(O)C3CC[N+](C)(Cc4ccccc4)CC3)sc2cc1OC` (stereo in doubt; 9) [listing 2 of 2 here], the Solubility in data set [3] stood at 10000 µg/mL.
For `COc1cc2cc(C=C3CC[N+](C)(Cc4ccccc4)CC3)sc2cc1OC.[Br-]` (stereo not drawn), the solubility in data set [1] was 1000 µg/mL. Besides, half-maximal inhibition in data set [2] (IC50) required 2670 nM.
As to `CCC[n+]1ccc(CCC(=O)c2cc3cc(OC)c(OC)cc3s2)cc1.[Br-]`, the solubility in data set [1] is 16000 µg/mL.
Turning to `COc1cc2cc(C(=O)CCC3CC[N+](C)(CC#N)CC3)sc2cc1OC.[Br-]` (stereo not drawn), the solubility in data set [1] is 2000 µg/mL. Moreover, in data set [2], the IC50 was greater than 1000 nM.
With `COc1cc2cc(C(=O)CCc3cc[n+](C)cc3)sc2cc1OC.[Br-]`, the solubility in data set [1] was 3000 µg/mL. This compound displayed a 50% inhibitory concentration (IC50) in data set [2] of 900 nM.
Turning to `COC(=O)c1ccc(C[n+]2ccc(CCC(=O)c3cc4cc(OC)c(OC)cc4s3)cc2)cc1`, the solubility in data set [1] came out at 3500 µg/mL.
For the compound `COc1cc2cc(C(=O)CC3=CC[N+](C)(Cc4ccccc4)CC3)sc2cc1OC.[Br-]` (stereo not drawn), the solubility in data set [1] was 20000 µg/mL. The compound also yielded an IC50 in data set [2] of 750 nM.
With `COCC[n+]1ccc(CCC(=O)c2cc3cc(OC)c(OC)cc3s2)cc1`, the solubility in data set [1] was determined as 33000 µg/mL. The compound further displayed an IC50 in data set [2] of 30 nM.
Taken in the same sequence, the figures for `COc1cc2cc(C(=O)CCC3CC[N+](C)(Cc4ccc([N+](=O)[O-])o4)CC3)sc2cc1OC.[Br-]` (stereo not drawn) were 600 µg/mL and 32 nM.
On to `COc1cc2cc(C(=O)CC(OC)C3CC[N+](C)(Cc4ccccc4)CC3)sc2cc1OC.[Br-]` (stereo not drawn), for which the solubility in data set [1] was found to be 1500 µg/mL. The same compound returned an IC50 in data set [2] of 120 nM.
Taken in the same sequence, the figures for `C=CC[n+]1ccc(CCC(=O)c2cc3cc(OC)c(OC)cc3s2)cc1.[Br-]` were 25000 µg/mL and 540 nM.
Taken in the same sequence, the figures for `COc1cc2cc(C(=O)CCCCC3CC[N+](C)(Cc4ccccc4)CC3)sc2cc1OC.[Br-]` (stereo not drawn) were 1000 µg/mL and 110 nM.
For the compound `COc1cc2cc(C(=O)CC(O)C3CC[N+](C)(Cc4ccccc4)CC3)sc2cc1OC.[Br-]` (stereo in doubt; 6), the S in data set [1] came to 10 mg/mL. The compound also registered an IC50 in data set [2] of 43 nM.
Turning to `COc1cc2cc(C(=O)CCC3CC[N+](C)(CCOc4ccccc4)CC3)sc2cc1OC.[Br-]` (stereo not drawn), the solubility in data set [1] amounted to 900 µg/mL. Also, in data set [2], the IC50 turned out to be 390 nM.
Regarding `COc1cc2cc(C(=O)CC3(O)CC[N+](C)(Cc4ccccc4)CC3)sc2cc1OC.[Br-]` (stereo not drawn), the solubility in data set [1] came to 1250 µg/mL.
Consider `COc1cc2cc(C(=O)C=C3CC[N+](C)(Cc4ccccc4)CC3)sc2cc1OC.[Br-]` (stereo not drawn), for which the solubility in data set [1] is 25000 µg/mL. For the same compound, in data set [2], 520 nM corresponded to half-maximal inhibition (IC50).
Taken in the same sequence, the figures for `COc1cc2cc(C(=O)CCC3CC[N+](C)(CC(=O)OC(C)(C)C)CC3)sc2cc1OC.[Br-]` (stereo not drawn) were 1500 µg/mL and 79 nM.
As for `COc1cc2cc(C(=O)CCc3cc[n+](CC4CCC4)cc3)sc2cc1OC.[Br-]`, the solubility in data set [1] worked out at 6000 µg/mL. The same compound returned an IC50 in data set [2] of 40 nM.
With `COc1cc2cc(C(=O)CC(O)CCC3CC[N+](C)(Cc4ccccc4)CC3)sc2cc1OC.[Br-]` (stereo not drawn), in data set [1], the solubility was found to be 2500 µg/mL. The compound also gave an IC50 in data set [2] of 380 nM.
With `COc1cc2cc(C(=O)CCC3CC[N+](C)(Cc4ccccc4)CC3)sc2cc1OC.[Br-]` (stereo not drawn), in data set [1], the solubility turned out to be 2000 µg/mL.
Take `COc1cc2cc(C(=O)CC(O)C3CC[N+](C)(Cc4ccccc4)CC3)sc2cc1OC.[Br-]` (single isomer, unassigned; (-)): the S in data set [1] is 8 mg/mL. The compound also gave an IC50 in data set [2] of 665 nM.
Regarding `COc1cc2cc(C(O)C3CC[N+](C)(Cc4ccccc4)CC3)sc2cc1OC.[Br-]` (stereo not drawn), the solubility in data set [1] came to 2000 µg/mL. In data set [2], this compound yielded an IC50 of 19600 nM.
Take `COc1cc2cc(C(=O)CCC3CC[N+](C)(CC4CCCCO4)CC3)sc2cc1OC.[Br-]` (stereo not drawn): the solubility in data set [1] turned out to be 1500 µg/mL. The compound also showed an IC50 in data set [2] of 28 nM.
With `COc1cc2cc(C(=O)CCc3cc[n+](Cc4ccccc4)cc3)sc2cc1OC`, the solubility in data set [1] was found to be 2000 µg/mL.
For the compound `COc1cc2cc(C(=O)CCc3cc[n+](Cc4ccc([N+](=O)[O-])o4)cc3)sc2cc1OC.[Br-]`, the solubility in data set [1] amounted to 35000 µg/mL. The IC50 in data set [2] is 4.5 nM.
Taken in the same sequence, the figures for `CC[n+]1ccc(CCC(=O)c2cc3cc(OC)c(OC)cc3s2)cc1.[Br-]` were 25000 µg/mL and 280 nM.
Taken in the same sequence, the figures for `COc1cc2cc(C(=O)CCc3cc[n+](CC4CC4)cc3)sc2cc1OC.[Br-]` were 15000 µg/mL and 110 nM.
